ChEMBL document CHEMBL4041516, “SAR study of 5-alkynyl substituted quinazolin-4(3H)-ones as phosphoinositide 3-kinase delta (PI3Kδ) inhibitors” (Eur J Med Chem, 2017)

How the values were obtained:
[1] = tested on: SU-DHL-6; assay: Antiproliferative activity against human SUDHL6 cells measured after 72 hrs by alamar blue assay; type: functional, cell-based; conditions: SU-DHL-6, 72 h
[2] = target: T1, Phosphatidylinositol 4,5-bisphosphate 3-kinase catalytic subunit delta isoform (Homo sapiens, UniProt O00329); assay: Inhibition of PI3Kdelta (unknown origin) using PIP2 as substrate measured after 30 mins by HTRF assay
T1 sequence (O00329 whole entry): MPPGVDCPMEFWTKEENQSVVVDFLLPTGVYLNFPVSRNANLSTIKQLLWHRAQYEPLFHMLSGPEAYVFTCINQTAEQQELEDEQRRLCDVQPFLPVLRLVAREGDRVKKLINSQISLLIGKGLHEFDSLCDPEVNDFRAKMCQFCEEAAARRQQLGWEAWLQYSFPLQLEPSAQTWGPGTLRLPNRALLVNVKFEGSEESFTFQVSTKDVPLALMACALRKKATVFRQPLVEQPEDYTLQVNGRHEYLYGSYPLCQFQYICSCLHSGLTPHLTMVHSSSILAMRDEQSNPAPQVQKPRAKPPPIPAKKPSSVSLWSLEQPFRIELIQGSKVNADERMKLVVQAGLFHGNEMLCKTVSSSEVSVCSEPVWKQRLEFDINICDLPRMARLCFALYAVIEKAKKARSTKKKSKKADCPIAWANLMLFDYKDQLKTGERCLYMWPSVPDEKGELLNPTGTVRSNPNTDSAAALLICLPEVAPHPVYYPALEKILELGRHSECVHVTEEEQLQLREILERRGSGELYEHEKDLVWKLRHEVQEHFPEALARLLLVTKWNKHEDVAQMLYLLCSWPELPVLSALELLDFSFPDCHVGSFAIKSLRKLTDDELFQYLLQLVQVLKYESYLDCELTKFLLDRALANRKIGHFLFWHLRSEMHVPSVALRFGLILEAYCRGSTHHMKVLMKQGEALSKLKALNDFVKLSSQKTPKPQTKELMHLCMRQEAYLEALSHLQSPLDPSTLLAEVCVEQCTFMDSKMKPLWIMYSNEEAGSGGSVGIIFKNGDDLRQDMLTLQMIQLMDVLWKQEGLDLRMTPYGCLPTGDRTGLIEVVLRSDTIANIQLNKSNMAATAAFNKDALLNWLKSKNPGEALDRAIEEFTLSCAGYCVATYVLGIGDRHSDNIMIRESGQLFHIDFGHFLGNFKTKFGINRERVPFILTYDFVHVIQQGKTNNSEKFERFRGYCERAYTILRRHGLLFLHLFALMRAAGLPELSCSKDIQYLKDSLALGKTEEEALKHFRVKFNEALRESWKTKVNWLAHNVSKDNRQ

[3] = tested on: SU-DHL10; assay: Antiproliferative activity against human SU-DHL10 cells measured after 72 hrs by alamar blue assay; type: functional, cell-based; conditions: SU-DHL10, 72 h
[4] = tested on: Pfeiffer; assay: Antiproliferative activity against human Pfeiffer cells measured after 72 hrs by alamar blue assay; type: functional, cell-based
[5] = tested on: NAMALVA; assay: Antiproliferative activity against human NAMALWA cells measured after 72 hrs by alamar blue assay; type: functional, cell-based
[6] = tested on: MOLT-4; assay: Antiproliferative activity against human MOLT4 cells measured after 72 hrs by alamar blue assay; type: functional, cell-based; conditions: MOLT-4, 72 h
[7] = tested on: SU-DHL-1; assay: Antiproliferative activity against human SU-DHL1 cells measured after 72 hrs by alamar blue assay; type: functional, cell-based; conditions: SU-DHL-1, 72 h
[8] = tested on: HT; assay: Antiproliferative activity against human HT cells measured after 72 hrs by alamar blue assay; type: functional, cell-based
[9] = tested on: KARPAS-422; assay: Antiproliferative activity against human KARPAS422 cells measured after 72 hrs by alamar blue assay; type: functional, cell-based; conditions: KARPAS-422, 72 h
[10] = Antiproliferative activity against human WSU-DLCL2 cells measured after 72 hrs by alamar blue assay; type: functional, cell-based; conditions: WSUDLCL2, 72 h
[11] = tested on: SUD4; assay: Antiproliferative activity against human SU-DHL4 cells measured after 72 hrs by alamar blue assay; type: functional, cell-based; conditions: SU-DHL-4, 72 h
[12] = target: Phosphatidylinositol 4,5-bisphosphate 3-kinase catalytic subunit beta isoform (Homo sapiens, UniProt P42338); assay: Inhibition of PI3Kbeta (unknown origin) using PIP2 as substrate measured after 30 mins by HTRF assay
Phosphatidylinositol 4,5-bisphosphate 3-kinase catalytic subunit beta isoform, sequence (P42338 whole entry, canonical isoform): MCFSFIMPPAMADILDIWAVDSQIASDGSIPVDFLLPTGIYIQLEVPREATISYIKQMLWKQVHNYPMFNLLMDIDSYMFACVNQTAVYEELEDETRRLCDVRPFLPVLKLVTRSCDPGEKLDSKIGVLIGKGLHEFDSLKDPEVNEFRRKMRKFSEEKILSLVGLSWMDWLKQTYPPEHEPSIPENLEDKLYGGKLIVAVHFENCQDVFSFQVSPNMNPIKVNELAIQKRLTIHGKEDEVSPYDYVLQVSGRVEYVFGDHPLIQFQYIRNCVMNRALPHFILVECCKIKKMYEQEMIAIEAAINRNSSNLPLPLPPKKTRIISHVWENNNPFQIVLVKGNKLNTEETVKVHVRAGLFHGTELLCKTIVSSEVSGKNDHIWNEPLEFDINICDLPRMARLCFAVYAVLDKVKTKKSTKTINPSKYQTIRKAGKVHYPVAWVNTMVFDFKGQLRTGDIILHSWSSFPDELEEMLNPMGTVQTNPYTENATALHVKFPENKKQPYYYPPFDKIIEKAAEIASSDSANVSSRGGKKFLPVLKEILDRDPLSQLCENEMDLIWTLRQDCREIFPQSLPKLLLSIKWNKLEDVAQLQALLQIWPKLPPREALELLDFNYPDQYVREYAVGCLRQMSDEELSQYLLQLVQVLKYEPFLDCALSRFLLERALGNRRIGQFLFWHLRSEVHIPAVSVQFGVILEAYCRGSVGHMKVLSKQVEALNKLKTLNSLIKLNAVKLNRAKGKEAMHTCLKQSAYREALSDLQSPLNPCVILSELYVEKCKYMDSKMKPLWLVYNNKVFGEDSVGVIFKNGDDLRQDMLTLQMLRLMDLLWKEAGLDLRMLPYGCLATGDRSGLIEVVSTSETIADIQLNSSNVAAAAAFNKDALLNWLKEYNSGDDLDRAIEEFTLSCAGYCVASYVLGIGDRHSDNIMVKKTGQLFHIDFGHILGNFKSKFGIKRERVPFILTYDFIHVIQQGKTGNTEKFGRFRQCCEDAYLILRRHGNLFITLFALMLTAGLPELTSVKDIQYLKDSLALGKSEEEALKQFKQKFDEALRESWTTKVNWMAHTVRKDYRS

[13] = target: Voltage-gated inwardly rectifying potassium channel KCNH2 (Homo sapiens, UniProt Q12809); assay: Inhibition of human ERG; conditions: read-out: IC50
Voltage-gated inwardly rectifying potassium channel KCNH2, sequence (Q12809 whole entry, canonical isoform): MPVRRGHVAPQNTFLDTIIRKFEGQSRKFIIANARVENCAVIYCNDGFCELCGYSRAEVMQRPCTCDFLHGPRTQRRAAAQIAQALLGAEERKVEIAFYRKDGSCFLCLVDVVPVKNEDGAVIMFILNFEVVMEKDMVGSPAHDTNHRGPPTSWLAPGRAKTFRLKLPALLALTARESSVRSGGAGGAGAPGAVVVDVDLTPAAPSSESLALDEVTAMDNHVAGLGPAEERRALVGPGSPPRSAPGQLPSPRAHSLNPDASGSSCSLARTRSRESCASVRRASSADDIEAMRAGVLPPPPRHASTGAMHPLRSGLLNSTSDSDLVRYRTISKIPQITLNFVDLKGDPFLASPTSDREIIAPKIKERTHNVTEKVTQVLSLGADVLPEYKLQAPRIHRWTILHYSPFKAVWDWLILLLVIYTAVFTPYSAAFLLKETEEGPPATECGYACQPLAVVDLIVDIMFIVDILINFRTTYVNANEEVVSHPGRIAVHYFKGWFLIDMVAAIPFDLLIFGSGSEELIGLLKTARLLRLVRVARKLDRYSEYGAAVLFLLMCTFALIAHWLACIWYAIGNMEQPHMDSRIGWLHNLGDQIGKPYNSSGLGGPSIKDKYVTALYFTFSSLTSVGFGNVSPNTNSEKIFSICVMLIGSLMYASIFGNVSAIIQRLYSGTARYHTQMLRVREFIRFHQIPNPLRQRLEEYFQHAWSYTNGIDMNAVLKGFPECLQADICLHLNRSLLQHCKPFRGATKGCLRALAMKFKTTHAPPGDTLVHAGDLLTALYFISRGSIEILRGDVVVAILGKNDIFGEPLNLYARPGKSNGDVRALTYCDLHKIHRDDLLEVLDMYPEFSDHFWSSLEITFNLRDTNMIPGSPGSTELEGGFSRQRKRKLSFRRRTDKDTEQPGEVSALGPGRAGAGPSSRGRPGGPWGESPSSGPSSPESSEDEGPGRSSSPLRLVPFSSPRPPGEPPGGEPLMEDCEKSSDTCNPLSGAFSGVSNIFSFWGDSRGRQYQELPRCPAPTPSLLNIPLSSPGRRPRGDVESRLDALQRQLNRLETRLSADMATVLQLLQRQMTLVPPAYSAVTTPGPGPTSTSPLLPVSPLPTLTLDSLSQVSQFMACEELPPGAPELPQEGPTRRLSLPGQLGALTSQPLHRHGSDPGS

[14] = target: Phosphatidylinositol 4,5-bisphosphate 3-kinase catalytic subunit alpha isoform (Homo sapiens, UniProt P42336); assay: Inhibition of PI3Kalpha (unknown origin) using PIP2 as substrate measured after 30 mins by HTRF assay
Phosphatidylinositol 4,5-bisphosphate 3-kinase catalytic subunit alpha isoform, sequence (P42336 whole entry, canonical isoform): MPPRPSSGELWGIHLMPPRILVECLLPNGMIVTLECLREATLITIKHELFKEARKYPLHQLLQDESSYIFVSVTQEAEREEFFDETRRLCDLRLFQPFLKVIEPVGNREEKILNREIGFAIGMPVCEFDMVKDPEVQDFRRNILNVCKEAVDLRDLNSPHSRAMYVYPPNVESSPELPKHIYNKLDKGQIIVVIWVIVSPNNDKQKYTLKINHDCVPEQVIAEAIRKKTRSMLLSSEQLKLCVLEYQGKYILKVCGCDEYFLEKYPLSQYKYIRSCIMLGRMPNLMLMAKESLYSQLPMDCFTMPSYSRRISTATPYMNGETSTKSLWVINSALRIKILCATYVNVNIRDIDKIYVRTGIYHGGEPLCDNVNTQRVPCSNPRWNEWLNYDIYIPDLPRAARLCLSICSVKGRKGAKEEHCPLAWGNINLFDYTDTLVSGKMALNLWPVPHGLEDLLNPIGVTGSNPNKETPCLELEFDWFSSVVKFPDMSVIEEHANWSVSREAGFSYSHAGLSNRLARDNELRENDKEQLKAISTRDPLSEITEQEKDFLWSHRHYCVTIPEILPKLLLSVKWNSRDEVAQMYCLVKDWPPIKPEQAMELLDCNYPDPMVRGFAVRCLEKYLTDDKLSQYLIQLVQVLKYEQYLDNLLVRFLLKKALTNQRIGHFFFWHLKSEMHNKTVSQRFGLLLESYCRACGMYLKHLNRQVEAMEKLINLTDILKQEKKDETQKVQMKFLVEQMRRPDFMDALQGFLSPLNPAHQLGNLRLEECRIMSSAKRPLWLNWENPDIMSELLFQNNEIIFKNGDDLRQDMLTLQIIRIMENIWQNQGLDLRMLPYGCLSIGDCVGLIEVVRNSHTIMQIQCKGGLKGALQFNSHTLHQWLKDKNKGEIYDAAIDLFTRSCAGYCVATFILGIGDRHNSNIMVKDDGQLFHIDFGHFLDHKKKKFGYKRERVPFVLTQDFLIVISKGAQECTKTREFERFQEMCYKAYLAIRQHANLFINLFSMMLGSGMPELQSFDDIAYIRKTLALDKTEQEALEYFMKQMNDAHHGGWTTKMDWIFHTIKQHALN

[15] = target: hERG (KCNH2) (Homo sapiens, UniProt Q12809); assay: Inhibition of human ERG at 40 uM relative to control
[16] = target: Phosphatidylinositol 4,5-bisphosphate 3-kinase catalytic subunit gamma isoform (Homo sapiens, UniProt P48736); assay: Inhibition of PI3Kgamma (unknown origin) using PIP2 as substrate measured after 30 mins by HTRF assay
Phosphatidylinositol 4,5-bisphosphate 3-kinase catalytic subunit gamma isoform, sequence (P48736 whole entry, canonical isoform): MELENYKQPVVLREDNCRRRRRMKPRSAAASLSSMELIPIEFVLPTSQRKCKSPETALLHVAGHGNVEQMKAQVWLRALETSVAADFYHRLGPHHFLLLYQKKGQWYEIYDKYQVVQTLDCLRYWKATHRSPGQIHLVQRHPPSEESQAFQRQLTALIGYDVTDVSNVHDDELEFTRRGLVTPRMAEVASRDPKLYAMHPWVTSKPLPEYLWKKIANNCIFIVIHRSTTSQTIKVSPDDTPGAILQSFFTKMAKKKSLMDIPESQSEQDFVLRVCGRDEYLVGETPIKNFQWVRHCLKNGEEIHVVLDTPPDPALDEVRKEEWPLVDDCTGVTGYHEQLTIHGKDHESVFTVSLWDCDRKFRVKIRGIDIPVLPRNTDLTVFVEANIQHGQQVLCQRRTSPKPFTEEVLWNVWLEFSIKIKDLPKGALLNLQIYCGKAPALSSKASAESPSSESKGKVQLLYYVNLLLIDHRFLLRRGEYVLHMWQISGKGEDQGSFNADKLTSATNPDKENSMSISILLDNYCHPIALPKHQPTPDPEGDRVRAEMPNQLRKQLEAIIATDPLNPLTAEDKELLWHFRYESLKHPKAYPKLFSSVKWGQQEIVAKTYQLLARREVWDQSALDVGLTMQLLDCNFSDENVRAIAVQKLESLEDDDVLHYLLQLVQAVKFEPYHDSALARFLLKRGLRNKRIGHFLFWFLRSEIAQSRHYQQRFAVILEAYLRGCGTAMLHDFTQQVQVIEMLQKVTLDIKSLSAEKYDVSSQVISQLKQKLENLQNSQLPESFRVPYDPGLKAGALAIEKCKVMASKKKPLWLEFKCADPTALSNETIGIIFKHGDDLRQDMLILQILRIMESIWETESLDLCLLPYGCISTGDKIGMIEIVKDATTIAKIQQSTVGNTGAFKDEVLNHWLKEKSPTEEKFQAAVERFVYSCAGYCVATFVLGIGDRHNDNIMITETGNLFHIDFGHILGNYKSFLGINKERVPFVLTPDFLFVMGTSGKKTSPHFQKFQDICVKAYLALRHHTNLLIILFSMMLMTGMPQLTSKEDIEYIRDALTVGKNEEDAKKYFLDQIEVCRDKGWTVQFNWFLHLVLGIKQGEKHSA

Compound | IC50 [1] | IC50 [2] | further results
N#Cc1c(N)ncnc1N1CCC[C@H]1c1nc2cccc(C#Cc3cccc(F)c3)c2c(=O)n1-c1ccccc1 | 3860 nM | > 300 nM | –
CC(C)N1CCN(Cc2cnc(C#Cc3cccc4nc([C@@H]5CCCN5c5ncnc(N)c5C#N)n(-c5ccccc5)c(=O)c34)s2)CC1 | 1150 nM | > 300 nM | –
CC[C@H](Nc1ncnc(N)c1C#N)c1nc2cccc(C#CCCCC(=O)N3CCOCC3)c2c(=O)n1-c1ccccc1 | 1430 nM | 96.8 nM | –
N#Cc1c(N)ncnc1N1CCC[C@H]1c1nc2cccc(C#Cc3ccccn3)c2c(=O)n1-c1ccccc1 | 1900 nM | > 300 nM | –
CC(C)(F)CN1CCN(CC#Cc2cccc3nc([C@@H]4CCCN4c4ncnc(N)c4C#N)n(-c4ccccc4)c(=O)c23)CC1 | 2820 nM | 170 nM | –
Cc1nc(N)nc(N2CC[C@H]2c2nc3cccc(C#CCCCC(=O)N4CCOCC4)c3c(=O)n2-c2ccccc2)c1C#N | 640 nM | 16.8 nM | –
N#Cc1c(N)ncnc1N1CCC[C@H]1c1nc2cccc(C#CC(=O)N3CCOCC3)c2c(=O)n1-c1ccccc1 | 1120 nM | 70 nM | –
Cc1nc(N)nc(N2CC[C@H]2c2nc3cccc(C#CCCCC(=O)N4CCCC4)c3c(=O)n2-c2ccccc2)c1C#N | 862 nM | 19.6 nM | –
CC(COC(F)F)N1CCN(CC#Cc2cccc3nc([C@@H]4CCCN4c4ncnc(N)c4C#N)n(-c4ccccc4)c(=O)c23)CC1 (stereo not given in full) | 2000 nM | 188 nM | –
CC[C@H](Nc1ncnc(N)c1C#N)c1nc2cccc(C#CCCCC(=O)N3CCCC3)c2c(=O)n1-c1ccccc1 | 1900 nM | 112 nM | –
CC(C)(C)N1CCN(C(=O)C#Cc2cccc3nc([C@@H]4CCCN4c4ncnc(N)c4C#N)n(-c4ccccc4)c(=O)c23)CC1 | 216 nM | 97.7 nM | –
CC[C@H](Nc1ncnc2[nH]cnc12)c1nc2cccc(F)c2c(=O)n1-c1ccccc1 [IDELALISIB] | 118 nM | – | IC50 [3]: > 10000 nM; IC50 [4]: 6800 nM; IC50 [5]: > 10000 nM; IC50 [6]: > 10000 nM; IC50 [7]: > 10000 nM; IC50 [8]: > 10000 nM; IC50 [9]: 8100 nM; IC50 [10]: > 10000 nM
CC[C@H](Nc1nc(N)nc(N)c1C#N)c1nc2cccc(C#CCCCO)c2c(=O)n1-c1ccccc1 | 26.8 nM | 12.2 nM | –
N#Cc1c(N)ncnc1N1CCC[C@H]1c1nc2cccc(C#CCN3CCOCC3)c2c(=O)n1-c1ccccc1 | 1160 nM | 107 nM | –
N#Cc1c(N)ncnc1N1CC[C@H]1c1nc2cccc(C#CCCCC(=O)N3CCOCC3)c2c(=O)n1-c1ccccc1 | 7320 nM | 620 nM | –
N#Cc1c(N)ncnc1N1CCC[C@H]1c1nc2cccc(C#CCCCC(=O)N3CCOCC3)c2c(=O)n1-c1ccccc1 | 27.6 nM | 13.8 nM | IC50 [11]: 3900 nM; IC50 [3]: 2400 nM; IC50 [4]: 7200 nM; IC50 [12]: 1650 nM; IC50 [5]: 6000 nM; IC50 [13]: 31700 nM; IC50 [6]: > 10000 nM; IC50 [14]: 3110 nM; IC50 [7]: > 10000 nM; IC50 [8]: > 10000 nM; inhibition at 40 µM [15]: 61.9%; IC50 [9]: 11600 nM; IC50 [10]: > 10000 nM; IC50 [16]: 291 nM

Compound | IC50 [1] | IC50 [2] | further results
CCOC(=O)c1cnc(C#Cc2cccc3nc([C@@H]4CCCN4c4ncnc(N)c4C#N)n(-c4ccccc4)c(=O)c23)s1 | > 10000 nM | > 300 nM | –
CC[C@H](Nc1ncnc2[nH]cnc12)c1nc2cccc(C#CCCCC(=O)N3CCOCC3)c2c(=O)n1-c1ccccc1 | 1180 nM | 110 nM | –
Nc1nc(N)nc(N2CCC[C@H]2c2nc3cccc(C#CCCCC(=O)N4CCOCC4)c3c(=O)n2-c2ccccc2)n1 | > 10000 nM | > 300 nM | –
Cc1nc(N)nc(N2CCC[C@H]2c2nc3cccc(C#CCCCC(=O)N4CCOCC4)c3c(=O)n2-c2ccccc2)c1C#N | 178 nM | 11.8 nM | –
N#Cc1c(N)ncnc1N1CCC[C@H]1c1nc2cccc(C#CCCCC(=O)N3CCCC3)c2c(=O)n1-c1ccccc1 | 99 nM | 11.5 nM | –
CC(C)(C)N1CCN(CC#Cc2cccc3nc([C@@H]4CCCN4c4ncnc(N)c4C#N)n(-c4ccccc4)c(=O)c23)CC1 | 282 nM | 43 nM | –
N#Cc1c(N)ncnc1N1CCC[C@H]1c1nc2cccc(C#CCN3CCC(C4CC(F)(F)C4)CC3)c2c(=O)n1-c1ccccc1 | 724 nM | 141 nM | –
N#Cc1c(N)ncnc1N1CCC[C@H]1c1nc2cccc(C#Cc3cccs3)c2c(=O)n1-c1ccccc1 | 1680 nM | 41.5 nM | –
N#Cc1c(N)ncnc1N1CC[C@H]1c1nc2cccc(C#CCCCC(=O)N3CCCC3)c2c(=O)n1-c1ccccc1 | 7840 nM | 440 nM | –
N#Cc1c(N)ncnc1N1CCC[C@H]1c1nc2cccc(C#CCN3C[C@@H]4C[C@H]3CN4)c2c(=O)n1-c1ccccc1 | 1260 nM | 135 nM | –
N#Cc1c(N)ncnc1N1CCC[C@H]1c1nc2cccc(C#Cc3cccnc3)c2c(=O)n1-c1ccccc1 | 1730 nM | > 300 nM | –
C=CC(O)C(C)(C)N1CCN(CC#Cc2cccc3nc([C@@H]4CCCN4c4ncnc(N)c4C#N)n(-c4ccccc4)c(=O)c23)CC1 (stereo not given in full) | 372 nM | 60.2 nM | –
CC(F)CN1CCN(CC#Cc2cccc3nc([C@@H]4CCCN4c4ncnc(N)c4C#N)n(-c4ccccc4)c(=O)c23)CC1 (stereo not given in full) | 1410 nM | 80.2 nM | –
N#Cc1c(N)ncnc1N1CCC[C@H]1c1nc2cccc(C#CCN3CCN(CC4CC4)CC3)c2c(=O)n1-c1ccccc1 | 705 nM | 107 nM | –
N#Cc1c(N)ncnc1N1CCC[C@H]1c1nc2cccc(C#CCN3CCC(C4CC(F)C4)CC3)c2c(=O)n1-c1ccccc1 (stereo not given in full) | 526 nM | 78.1 nM | –
CC(C)(CO)N1CCN(CC#Cc2cccc3nc([C@@H]4CCCN4c4ncnc(N)c4C#N)n(-c4ccccc4)c(=O)c23)CC1 | 339 nM | 67.1 nM | –
